Article PMC11012124, “Synthesis of Novel Triazine-Based Chalcones and 8,9-dihydro-7H-pyrimido[4,5-b][1,4]diazepines as Potential Leads in the Search of Anticancer, Antibacterial and Antifungal Agents” (International Journal of Molecular Sciences, 2024)
In brackets after ≈: the same amount, converted by molar mass.

Tests used:
60 cancer cell lines = test: NCI-60 one-dose screen (10 μM); type: cell-based; conditions: Homo sapiens; one dose of 10 μM, mean over 60 cancer cell lines; read-out: Mean Growth Percent (MGP)
Description: Additionally, the mean of the growth percentages (MGP) of each compound against all the 60 cancer cell lines is also reported, which is used as one of the selection criteria to continue with tests at five concentration doses.

[1] = tested on: N. gonorrhoeae ATCC 49226; test: MIC on GC agar plates; type: cell-based, Neisseria gonorrhoeae; conditions: Neisseria gonorrhoeae, ATCC49226, read-out: MIC
Description: An initial screening for bacterial inhibition was performed by the agar diffusion method. […] DMSO and TSB were included as negative controls. Gentamicin and trimethoprim sulfamethoxazole were included as a positive control for growth inhibition. Derivatives showing growth inhibition were tested at least twice before being selected for the microdilution test. For N. gonorrhoeae, the agar diffusion method was also used for screening with some modifications. […] Penicillin and tetracycline were used as controls. […] Briefly, GC agar supplemented with 1% isovitalex was prepared with increasing concentrations of the new compounds and inoculated with 10 µL of a bacterial suspension (1 × 10^4 CFU). The lowest concentration of the compound that inhibited bacterial growth was determined as the MIC. Bacterial growth was examined and verified using the oxidase test. The experiments were performed in duplicate in at least two independent assays.

[2] = Hemolytic activity, spectrophotometric; type: cell-based, human; conditions: human, human red blood cells (huRBC), 5% hematocrit, 200 μg/mL, 37 °C
[3] = tested on: M. tuberculosis ATCC 27294; test: Antitubercular broth microdilution MIC; type: cell-based; conditions: Mycobacterium tuberculosis; M. tuberculosis ATCC 27294 (H37Rv); read-out: Minimum inhibitory concentration (MIC)
[4] = tested on: Microsporum gypseum (CCC 115); test: Antifungal broth microdilution (CLSI); type: cell-based; conditions: Nannizzia gypsea; Mg: Microsporum gypseum
Description: (§1) Several of the obtained triazine derivatives were evaluated against sensitive fungal species comprising of two yeasts (Candida albicans (ATCC 10231), Cryptococcus neoformans (ATCC 32264)), three dermatophytes (Microsporum gypseum (CCC 115), Trichophyton rubrum (CCC 134-2000), Trichophyton mentagrophytes (CCC 202-2000)), and three Aspergillus fungi ((A. [NT] 26934), A. niger (ATCC 9029), and A. flavus (ATCC 9170)). […] Broth microdilution techniques were performed in 96-well microplates according to the Reference Method for Broth Dilution Antifungal Susceptibility Testing of Yeasts, document M27-A3 [86] and of Filamentous Fungi […]-A8 [87]. […] An inoculum suspension (100 μL) was added to each well (final well volume = 200 μL). One growth control well (containing medium, inoculum, and the same amount of DMSO as used for each compound) and one sterility control well (sample, medium, and sterile water instead of inoculum) were included for each fungus tested. Microtiter plates were incubated in a dark, humid chamber at 30 °C for the time necessary for each fungus. Amphotericin B, Terbinafine, Fluconazole and Itraconazole were used as a positive control. The tests were performed in triplicate.

[5] = tested on: Trichophyton mentagrophytes (CCC 202-2000); test: Antifungal broth microdilution (CLSI); type: cell-based; conditions: Tm: Trichophyton mentagrophytes
Description: as §1

[6] = tested on: Trichophyton rubrum (CCC 134-2000); test: Antifungal broth microdilution (CLSI); type: cell-based; conditions: Tr: Trichophyton rubrum
Description: as §1

[7] = tested on: Candida albicans (ATCC 10231); test: Antifungal broth microdilution (CLSI); type: cell-based; conditions: ATCC10231; Ca: Candida albicans
Description: as §1

[8] = tested on: Cryptococcus neoformans (ATCC 32264); test: Antifungal broth microdilution (CLSI); type: cell-based; conditions: ATCC32264; Cn: Cryptococcus neoformans
Description: as §1

Structure (SMILES)	activity at 10 µM (60 cancer cell lines) [%]	MIC [1] [µg/mL]	hemolysis at 24 h, 200 µg/mL [2] [%]	also measured
Nc1nc(N)c2c(n1)NC(c1ccc(C(F)(F)F)cc1)CC(c1ccc(Nc3nc(NCCO)nc(N4CCOCC4)n3)cc1)=N2 (stereo not shown) [32g]	64.8	4 (≈ 6.28 µM)	2	–
COc1cc(C=O)ccc1Oc1nc(Nc2ccc(F)cc2)nc(N(C)C)n1 [compound 15]	64.5	≥ 500	–	–
COc1cc(C2CC(c3ccc(Cl)cc3)=Nc3c(N)nc(N)nc3N2)ccc1Oc1nc(NCCO)nc(N2CCOCC2)n1 (stereo not shown) [28e]	70.2	8 (≈ 12.6 µM)	5	–
COc1cc(C=O)ccc1Oc1nc(NCCO)nc(N2CCOCC2)n1 [compound 14]	102	–	–	–
COc1cc(/C=C/C(=O)c2ccc(F)cc2)ccc1Oc1nc(Nc2ccc(F)cc2)nc(N(C)C)n1 [21f]	56	500 (≈ 993 µM)	0.8	–
COc1cc(C2CC(c3cc(OC)c(OC)c(OC)c3)=Nc3c(N)nc(N)nc3N2)ccc1Oc1nc(NCCO)nc(N2CCOCC2)n1 (stereo not shown) [28d]	98.9	2 (≈ 2.9 µM)	1	–
COc1ccc(C(=O)/C=C/c2ccc(Oc3nc(NCCO)nc(N4CCOCC4)n3)c(OC)c2)cc1 [20c]	72	–	–	–
COc1cc(C2CC(c3ccccc3)=Nc3c(N)nc(N)nc3N2)ccc1Oc1nc(Nc2ccc(F)cc2)nc(N(C)C)n1 (stereo not shown) [29a]	40.2	2 (≈ 3.29 µM)	3	MIC [3]: 5 µg/mL (≈ 8.23 µM)
CN(C/C=C/C#CC(C)(C)C)Cc1cccc2ccccc12 [Terbinafine, reference compound]	–	–	–	MIC [4]: 0.04 µg/mL (≈ 0.137 µM); MIC [5]: 0.025 µg/mL (≈ 0.0858 µM); MIC [6]: 0.01 µg/mL (≈ 0.0343 µM)
Nc1nc(N)c2c(n1)NC(c1ccc(F)cc1)CC(c1ccc(Nc3nc(NCCO)nc(N4CCOCC4)n3)cc1)=N2 (stereo not shown) [32f]	89.1	2 (≈ 3.41 µM)	5	–
CCC(C)n1ncn(-c2ccc(N3CCN(c4ccc(OCC5COC(Cn6cncn6)(c6ccc(Cl)cc6Cl)O5)cc4)CC3)cc2)c1=O (stereo not shown) [Itraconazole, reference compound]	–	–	–	MIC [7]: 0.5 µg/mL (≈ 0.709 µM)
Cc1ccc(C2CC(c3ccc(Nc4nc(NCCO)nc(N5CCOCC5)n4)cc3)=Nc3c(N)nc(N)nc3N2)cc1 (stereo not shown) [32b]	84.5	4 (≈ 6.86 µM)	1	–
OC(Cn1cncn1)(Cn1cncn1)c1ccc(F)cc1F [Fluconazole, reference compound]	–	–	–	MIC [7]: 0.03 µg/mL (≈ 0.098 µM); MIC [8]: 0.25 µg/mL (≈ 0.816 µM)
COc1ccc(C2CC(c3ccc(Nc4nc(NCCO)nc(N5CCOCC5)n4)cc3)=Nc3c(N)nc(N)nc3N2)cc1 (stereo not shown) [32c]	101	–	–	–
Nc1nc(N)c2c(n1)NC(c1ccccc1)CC(c1ccc(Nc3nc(NCCO)nc(N4CCOCC4)n3)cc1)=N2 (stereo not shown) [32a]	87.2	8 (≈ 14.1 µM)	2	–
CN(C)c1nc(NCCNS(=O)(=O)c2ccc(C3=Nc4c(N)nc(N)nc4NC(c4ccc(Cl)cc4)C3)cc2)nc(N2CCOCC2)n1 (stereo not shown) [30e]	48.9	–	2.7	–
COc1ccc(C(=O)/C=C/c2ccc(Oc3nc(Nc4ccc(F)cc4)nc(N(C)C)n3)c(OC)c2)cc1 [21c]	48.4	–	–	–
NNC(=O)c1ccncc1 [Isoniazid, reference compound]	–	–	–	MIC [3]: 0.1 µg/mL (≈ 0.729 µM)
Nc1nc(N)c2c(n1)NC(c1ccc(Cl)cc1)CC(c1ccc(Nc3nc(NCCO)nc(N4CCOCC4)n3)cc1)=N2 (stereo not shown) [32e]	74	1000 (≈ 1660 µM)	–	–
COc1cc(C2CC(c3ccc(Nc4nc(NCCO)nc(N5CCOCC5)n4)cc3)=Nc3c(N)nc(N)nc3N2)cc(OC)c1OC (stereo not shown) [32d]	99.5	500 (≈ 759 µM)	–	–
COc1cc(/C=C/C(=O)c2ccccc2)ccc1Oc1nc(NCCO)nc(N2CCOCC2)n1 [20a]	92.1	–	–	–

Structure (SMILES)	activity at 10 µM (60 cancer cell lines) [%]	MIC [1] [µg/mL]	hemolysis at 24 h, 200 µg/mL [2] [%]	also measured
COc1ccc(C2CC(c3ccc(S(=O)(=O)NCCNc4nc(N(C)C)nc(N5CCOCC5)n4)cc3)=Nc3c(N)nc(N)nc3N2)cc1 (stereo not shown) [30c]	84.3	–	–	–
COc1cc(/C=C/C(=O)c2ccc(F)cc2)ccc1Oc1nc(NCCO)nc(N2CCOCC2)n1 [20f]	72.4	–	–	–
CN(C)c1nc(NCCNS(=O)(=O)c2ccc(C3=Nc4c(N)nc(N)nc4NC(c4ccccc4)C3)cc2)nc(N2CCOCC2)n1 (stereo not shown) [30a]	85.4	–	0.6	–
COc1cc(C2CC(c3ccccc3)=Nc3c(N)nc(N)nc3N2)ccc1Oc1nc(NCCO)nc(N2CCOCC2)n1 (stereo not shown) [28a]	98.8	4 (≈ 6.67 µM)	3	–
COc1ccc(C2CC(c3ccc(Nc4nc(NCCO)nc(Nc5ccc(Cl)cc5)n4)cc3)=Nc3c(N)nc(N)nc3N2)cc1 (stereo not shown) [33c]	63.3	2 (≈ 3.13 µM)	5	–
COc1cc(C2CC(c3ccc(C)cc3)=Nc3c(N)nc(N)nc3N2)ccc1Oc1nc(NCCO)nc(N2CCOCC2)n1 (stereo not shown) [28b]	89.7	4 (≈ 6.52 µM)	5	–
COc1cc(/C=C/C(=O)c2ccc(Cl)cc2)ccc1Oc1nc(NCCO)nc(N2CCOCC2)n1 [20e]	94.7	–	–	–
Cc1ccc(/C=C/C(=O)c2ccc(S(=O)(=O)NCCNc3nc(N(C)C)nc(N4CCOCC4)n3)cc2)cc1 [23b]	72.3	–	1.8	–
COc1cc(/C=C/C(=O)c2ccc(Cl)cc2)ccc1Oc1nc(Nc2ccc(F)cc2)nc(N(C)C)n1 [21e]	73.1	–	–	–
COc1cc(/C=C/C(=O)c2ccc(C(F)(F)F)cc2)ccc1Oc1nc(NCCO)nc(N2CCOCC2)n1 [20g]	77.7	–	–	–
Cc1ccc(C2CC(c3ccc(S(=O)(=O)NCCNc4nc(N(C)C)nc(N5CCOCC5)n4)cc3)=Nc3c(N)nc(N)nc3N2)cc1 (stereo not shown) [30b]	49.9	–	0.2	–
COc1cc(C2CC(c3ccc(Nc4nc(NCCO)nc(Nc5ccc(Cl)cc5)n4)cc3)=Nc3c(N)nc(N)nc3N2)cc(OC)c1OC (stereo not shown) [33d]	65.3	–	–	–
COc1cc(C2CC(c3ccc(S(=O)(=O)NCCNc4nc(Nc5ccc(F)cc5)nc(N(C)C)n4)cc3)=Nc3c(N)nc(N)nc3N2)cc(OC)c1OC (stereo not shown) [31d]	79.6	500 (≈ 646 µM)	0.6	MIC [3]: 5 µg/mL (≈ 6.46 µM)
COc1cc(C2CC(c3ccc(F)cc3)=Nc3c(N)nc(N)nc3N2)ccc1Oc1nc(NCCO)nc(N2CCOCC2)n1 (stereo not shown) [28f]	98.2	8 (≈ 13 µM)	2	–
COc1ccc(C2CC(c3ccc(S(=O)(=O)NCCNc4nc(Nc5ccc(F)cc5)nc(N(C)C)n4)cc3)=Nc3c(N)nc(N)nc3N2)cc1 (stereo not shown) [31c]	75.8	8 (≈ 11.2 µM)	1.2	MIC [3]: 1.2 µg/mL (≈ 1.68 µM)
CC(=O)c1ccc(S(=O)(=O)NCCNc2nc(Nc3ccc(F)cc3)nc(N(C)C)n2)cc1 [compound 18]	104	–	–	–
COc1ccc(/C=C/C(=O)c2ccc(S(=O)(=O)NCCNc3nc(N(C)C)nc(N4CCOCC4)n3)cc2)cc1 [23c]	81.5	–	0	–
COc1ccc(C2=Nc3c(N)nc(N)nc3NC(c3ccc(Oc4nc(NCCO)nc(N5CCOCC5)n4)c(OC)c3)C2)cc1 (stereo not shown) [28c]	102	0.5 (≈ 0.794 µM)	7	–
CN(C)c1nc(NCCNS(=O)(=O)c2ccc(C3=Nc4c(N)nc(N)nc4NC(c4ccc(F)cc4)C3)cc2)nc(N2CCOCC2)n1 (stereo not shown) [30f]	72.8	–	–	–
COc1cc(/C=C/C(=O)c2ccc(C(F)(F)F)cc2)ccc1Oc1nc(Nc2ccc(F)cc2)nc(N(C)C)n1 [21g]	73.2	–	–	–
COc1cc(C2CC(c3ccc(C)cc3)=Nc3c(N)nc(N)nc3N2)ccc1Oc1nc(Nc2ccc(F)cc2)nc(N(C)C)n1 (stereo not shown) [29b]	51.3	≥ 500	–	MIC [3]: 0.6 µg/mL (≈ 0.965 µM)
